Reference: the NIST ThermoML archive (doi:10.1016/j.jct.2012.06.031)
± gives the expanded uncertainty stated by the source.

What was measured:
[1] = 101 kPa, Liquid; for viscosity: Concentric cylinders viscometry; for mass density: Vibrating tube method
[2] = refractive index (Na D-line) (dimensionless); settings: 101.33 kPa, Liquid, Standard Abbe refractometry
[3] = xn = mol fraction of the nth substance listed; settings: 101 kPa, Liquid; for viscosity: Concentric cylinders viscometry; for mass density: Vibrating tube method
[4] = refractive index (Na D-line) (dimensionless); xn = mol fraction of the nth substance listed; settings: 101 kPa, Liquid, Standard Abbe refractometry

c1ccncc1 [pyridine]
Settings | mass density, [1] [kg/m3] | refractive index, [2] | viscosity, [1] [mPa·s]
288.15 K | 988.061 ± 0.12 | 1.51184 ± 0.00031 | 1.03 ± 0.0089
293.15 K | 983.038 ± 0.12 | 1.509 ± 0.00031 | 0.9588 ± 0.0087
298.15 K | 978.006 ± 0.12 | 1.50616 ± 0.00031 | 0.8943 ± 0.0086
303.15 K | 972.967 ± 0.12 | 1.50331 ± 0.00031 | 0.8355 ± 0.0085
308.15 K | 967.913 ± 0.12 | 1.50048 ± 0.00031 | 0.7837 ± 0.0084
313.15 K | 962.849 ± 0.12 | 1.49769 ± 0.00031 | 0.7354 ± 0.0083
318.15 K | 957.769 ± 0.12 | 1.49493 ± 0.00031 | 0.6912 ± 0.0082
323.15 K | 952.673 ± 0.12 | 1.49219 ± 0.00031 | 0.6507 ± 0.0081

OCC(O)CO [glycerol]
Settings | mass density, [1] [kg/m3] | refractive index, [2] | viscosity, [1] [mPa·s]
288.15 K | 1264.08 ± 0.22 | 1.47552 ± 0.00033 | 2298.3 ± 120
293.15 K | 1261.03 ± 0.22 | 1.47427 ± 0.00033 | 1425.1 ± 65
298.15 K | 1257.94 ± 0.22 | 1.47301 ± 0.00033 | 911.98 ± 36
303.15 K | 1254.83 ± 0.22 | 1.47175 ± 0.00033 | 600.83 ± 20
308.15 K | 1251.68 ± 0.21 | 1.47048 ± 0.00033 | 406.93 ± 12
313.15 K | 1248.48 ± 0.21 | 1.4692 ± 0.00033 | 282.61 ± 6.7
318.15 K | 1245.24 ± 0.21 | 1.46791 ± 0.00033 | 201.03 ± 3.9
323.15 K | 1242.08 ± 0.21 | 1.46674 ± 0.00033 | 147.15 ± 2.2

OCCCO [propan-1,3-diol]
Settings | mass density, [1] [kg/m3] | refractive index, [2] | viscosity, [1] [mPa·s]
288.15 K | 1056.12 ± 0.95 | 1.44089 ± 0.00051 | 66.53 ± 0.72
293.15 K | 1053.02 ± 0.95 | 1.43947 ± 0.00051 | 51.91 ± 0.53
298.15 K | 1049.91 ± 0.94 | 1.43805 ± 0.00051 | 41.04 ± 0.44
303.15 K | 1046.79 ± 0.93 | 1.43665 ± 0.00051 | 32.84 ± 0.35
308.15 K | 1043.64 ± 0.93 | 1.43526 ± 0.00051 | 26.58 ± 0.28
313.15 K | 1040.49 ± 0.92 | 1.43387 ± 0.00051 | 21.74 ± 0.23
318.15 K | 1037.31 ± 0.91 | 1.43244 ± 0.00051 | 17.95 ± 0.19
323.15 K | 1034.12 ± 0.91 | 1.43099 ± 0.00051 | 14.96 ± 0.16

CCCO [propan-1-ol]
Settings | mass density, [1] [kg/m3] | refractive index, [2] | viscosity, [1] [mPa·s]
288.15 K | 807.947 ± 0.15 | 1.3878 ± 0.00031 | 2.514 ± 0.013
293.15 K | 803.963 ± 0.15 | 1.38576 ± 0.00031 | 2.208 ± 0.012
298.15 K | 799.953 ± 0.15 | 1.38369 ± 0.00031 | 1.95 ± 0.011
303.15 K | 795.915 ± 0.15 | 1.38162 ± 0.00031 | 1.727 ± 0.011
308.15 K | 791.84 ± 0.15 | 1.37918 ± 0.00031 | 1.542 ± 0.01
313.15 K | 787.721 ± 0.15 | 1.37695 ± 0.00031 | 1.378 ± 0.0097
318.15 K | 783.553 ± 0.15 | 1.37469 ± 0.00031 | 1.236 ± 0.0094
323.15 K | 779.334 ± 0.15 | 1.37231 ± 0.00031 | 1.124 ± 0.0091

c1ccncc1 [pyridine] + CC(O)CO
x1 = 1
Settings | mass density, [3] [kg/m3] | refractive index, [4] | viscosity, [3] [mPa·s]
288.15 K | 988.061 ± 0.12 | 1.51184 ± 0.00031 | 1.03 ± 0.0089
293.15 K | 983.038 ± 0.12 | 1.509 ± 0.00031 | 0.9588 ± 0.0087
298.15 K | 978.006 ± 0.12 | 1.50616 ± 0.00031 | 0.8943 ± 0.0086
303.15 K | 972.967 ± 0.12 | 1.50331 ± 0.00031 | 0.8355 ± 0.0085
308.15 K | 967.913 ± 0.12 | 1.50048 ± 0.00031 | 0.7837 ± 0.0084
313.15 K | 962.849 ± 0.12 | 1.49769 ± 0.00031 | 0.7354 ± 0.0083
318.15 K | 957.769 ± 0.12 | 1.49493 ± 0.00031 | 0.6912 ± 0.0082
323.15 K | 952.673 ± 0.12 | 1.49219 ± 0.00031 | 0.6507 ± 0.0081

CC(O)CO (stereo unspecified) [1,2-propanediol]
Settings | mass density, [1] [kg/m3] | refractive index, [2] | viscosity, [1] [mPa·s]
288.15 K | 1040.08 ± 0.14 | 1.43411 ± 0.00033 | 81.21 ± 0.6
293.15 K | 1036.46 ± 0.14 | 1.43247 ± 0.00033 | 58.75 ± 0.25
298.15 K | 1032.8 ± 0.14 | 1.43081 ± 0.00033 | 43.44 ± 0.2
303.15 K | 1029.09 ± 0.14 | 1.42915 ± 0.00033 | 32.75 ± 0.15
308.15 K | 1025.34 ± 0.13 | 1.42751 ± 0.00033 | 25.16 ± 0.12
313.15 K | 1021.55 ± 0.13 | 1.42581 ± 0.00033 | 19.65 ± 0.092
318.15 K | 1017.73 ± 0.13 | 1.42407 ± 0.00033 | 15.58 ± 0.071
323.15 K | 1013.86 ± 0.13 | 1.4223 ± 0.00033 | 12.55 ± 0.058

CCCO [propan-1-ol] + c1ccncc1
x2 = 0
Settings | mass density, [3] [kg/m3] | refractive index, [4] | viscosity, [3] [mPa·s]
288.15 K | 807.947 ± 0.15 | 1.3878 ± 0.00031 | 2.514 ± 0.013
293.15 K | 803.963 ± 0.15 | 1.38576 ± 0.00031 | 2.208 ± 0.012
298.15 K | 799.953 ± 0.15 | 1.38369 ± 0.00031 | 1.95 ± 0.011
303.15 K | 795.915 ± 0.15 | 1.38162 ± 0.00031 | 1.727 ± 0.011
308.15 K | 791.84 ± 0.15 | 1.37918 ± 0.00031 | 1.542 ± 0.01
313.15 K | 787.721 ± 0.15 | 1.37695 ± 0.00031 | 1.378 ± 0.0097
318.15 K | 783.553 ± 0.15 | 1.37469 ± 0.00031 | 1.236 ± 0.0094
323.15 K | 779.334 ± 0.15 | 1.37231 ± 0.00031 | 1.124 ± 0.0091

OCC(O)CO [glycerol] + c1ccncc1
x2 = 0
Settings | mass density, [3] [kg/m3] | refractive index, [4] | viscosity, [3] [mPa·s]
288.15 K | 1264.08 ± 0.22 | 1.47552 ± 0.00033 | 2298.3 ± 120
293.15 K | 1261.03 ± 0.22 | 1.47427 ± 0.00033 | 1425.1 ± 65
298.15 K | 1257.94 ± 0.22 | 1.47301 ± 0.00033 | 911.98 ± 36
303.15 K | 1254.83 ± 0.22 | 1.47175 ± 0.00033 | 600.83 ± 20
308.15 K | 1251.68 ± 0.21 | 1.47048 ± 0.00033 | 406.93 ± 12
313.15 K | 1248.48 ± 0.21 | 1.4692 ± 0.00033 | 282.61 ± 6.7
318.15 K | 1245.24 ± 0.21 | 1.46791 ± 0.00033 | 201.03 ± 3.9
323.15 K | 1242.08 ± 0.21 | 1.46674 ± 0.00033 | 147.15 ± 2.2

c1ccncc1 [pyridine] + OCCCO
x1 = 1
Settings | mass density, [3] [kg/m3] | refractive index, [4] | viscosity, [3] [mPa·s]
288.15 K | 988.061 ± 0.12 | 1.51184 ± 0.00031 | 1.03 ± 0.0089
293.15 K | 983.038 ± 0.12 | 1.509 ± 0.00031 | 0.9588 ± 0.0087
298.15 K | 978.006 ± 0.12 | 1.50616 ± 0.00031 | 0.8943 ± 0.0086
303.15 K | 972.967 ± 0.12 | 1.50331 ± 0.00031 | 0.8355 ± 0.0085
308.15 K | 967.913 ± 0.12 | 1.50048 ± 0.00031 | 0.7837 ± 0.0084
313.15 K | 962.849 ± 0.12 | 1.49769 ± 0.00031 | 0.7354 ± 0.0083
318.15 K | 957.769 ± 0.12 | 1.49493 ± 0.00031 | 0.6912 ± 0.0082
323.15 K | 952.673 ± 0.12 | 1.49219 ± 0.00031 | 0.6507 ± 0.0081
